Test [1] deals with T1, human κ opioid receptor (Homo sapiens, UniProt P41145). The experiment in a line: κ-opioid receptor [35S]GTPγS functional assay, HEK-293 or CHO cells. It is filed as biochemical. On the set-up: expressed in transfected cells. Conditions: for Emax: HEK-293 or CHO cells, relative to U69,593. The procedure: Membranes from recombinant HEK-293 cells, CHO or U-2 OS cells expressing the recombinant human K opioid receptor (K) were prepared by lysing cells in ice cold hypotonic buffer (2.5 mM MgCl2, 50 mM HEPES, pH 7.4) (10 mL/10 cm dish) followed by homogenization with a tissue grinder/Teflon pestle. Functional [^35S]GTPγS binding assays were conducted as follows. K opioid receptor membrane solution was prepared by sequentially adding final concentrations of 0.026 μg/μl κ membrane protein (in-house), 10 μg/mL saponin, 3 μM GDP and 0.20 nM [^35S]GTPγS to binding buffer (100 mM NaCl, 10 mM MgCl2, 20 mM HEPES, pH 7.4) on ice. The prepared membrane solution (190 μl/well) was transferred to 96-shallow well polypropylene plates containing 10 μl of 20× concentrated stock solutions of agonist prepared in DMSO. Plates were incubated for 30 min at a temperature of about 25° C. with shaking. Reactions were terminated by rapid filtration onto 96-well Unifilter GF/B filter plates (Perkin Elmer, Shelton, Conn.) using a 96-well tissue harvester (Packard) and followed by three filtration washes with 200 μl ice-cold binding buffer (10 mM NaH2PO4, 10 mM Na2HPO4, pH 7.4). Filter plates were subsequently dried at 50° C. for 2-3 hours. Fifty μl/well scintillation cocktail (Perkin Elmer, Shelton, Conn.) was added and plates were counted in a Packard Top-Count for 1 min/well.
T1 sequence (P41145 whole entry): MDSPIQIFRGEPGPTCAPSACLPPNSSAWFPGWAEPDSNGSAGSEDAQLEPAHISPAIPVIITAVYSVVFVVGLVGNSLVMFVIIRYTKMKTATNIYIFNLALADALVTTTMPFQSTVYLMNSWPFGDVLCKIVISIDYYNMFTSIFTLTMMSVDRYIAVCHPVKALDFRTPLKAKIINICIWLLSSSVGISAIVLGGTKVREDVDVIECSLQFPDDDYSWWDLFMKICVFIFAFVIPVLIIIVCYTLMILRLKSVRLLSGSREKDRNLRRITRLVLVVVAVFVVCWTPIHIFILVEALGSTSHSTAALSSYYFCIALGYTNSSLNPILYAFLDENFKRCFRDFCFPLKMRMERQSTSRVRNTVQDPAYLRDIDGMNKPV
κ GTP EC50 is the concentration of a compound providing 50% of the maximal response for the compound at a κ receptor.
κ GTP Emax (%) is the maximal effect elicited by a compound relative to the effect elicited by U69,593.
In TABLE 2, activity response of certain Compounds of the Invention at the μ- and κ-opioid receptors using HEK-293 or CHO cells was determined as described above for functional assays.
(In general: GTPγS is a poorly hydrolysed GTP analogue; its binding reports G protein activation.)

The target in test [2] is T1, human κ opioid receptor. Nature of the test: κ-opioid receptor [35S]GTPγS functional assay, U-2 OS cells. It counts as biochemical. More on the design: expressed in transfected cells; host or cells: U-2 OS cells (in-house membranes). The settings on record: for Emax: U2-OS cells, relative to U69,593. In a few lines: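 Membranes from U-2 OS cells expressing human κ receptor (0.026 μg/μl protein) were incubated with agonist, 10 μg/mL saponin, 3 μM GDP and 0.20 nM [35S]GTPγS in pH 7.4 HEPES buffer for 30 min at about 25 °C. Bound radioactivity was measured after filtration. EC50 was taken at half-maximal response; Emax is relative to U69,593.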

The target of test [3] is T2, μ-opioid receptor (Homo sapiens, UniProt P35372). The experiment in a line: μ-opioid receptor radioligand ([3H]-diprenorphine) dose-displacement binding assay, HEK-293 or CHO cells.
T2 sequence (P35372 whole entry, species assumed): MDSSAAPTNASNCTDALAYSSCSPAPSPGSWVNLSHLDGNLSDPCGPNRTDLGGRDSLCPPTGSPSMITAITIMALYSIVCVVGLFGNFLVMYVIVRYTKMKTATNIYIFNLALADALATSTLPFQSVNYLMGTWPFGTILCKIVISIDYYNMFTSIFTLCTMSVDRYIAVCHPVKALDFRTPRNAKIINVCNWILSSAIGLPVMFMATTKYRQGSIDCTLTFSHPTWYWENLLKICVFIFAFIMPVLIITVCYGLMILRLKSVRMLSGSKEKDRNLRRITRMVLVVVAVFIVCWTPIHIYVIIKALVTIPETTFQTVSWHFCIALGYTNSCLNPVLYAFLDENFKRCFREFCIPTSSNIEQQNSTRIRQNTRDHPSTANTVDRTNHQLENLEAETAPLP
Test [4] deals with T2, μ-opioid receptor. Nature of the test: μ-opioid receptor [35S]GTPγS functional assay, HEK-293 or CHO cells. It is filed as biochemical. Conditions: for Emax: HEK-293 or CHO cells, relative to DAMGO. In a few lines: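 Agonist-stimulated [35S]GTPγS binding to recombinant μ-receptor membranes (HEK-293 or CHO) with 0.20 nM [35S]GTPγS, […] and saponin, pH 7.4, 30 min at about 25 °C, then filtration and scintillation counting. EC50 from sigmoidal fits; Emax relative to DAMGO.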

Test [5] has as its target T1, human κ opioid receptor. The experiment in a line: κ-opioid receptor radioligand ([3H]-U69,593) dose-displacement binding assay, HEK-293 or CHO cells. On the set-up: expressed in transfected cells; host or cells: HEK-293 cells (in-house prep).
Test [6] addresses T2, μ-opioid receptor. Nature of the test: μ-opioid receptor [35S]GTPγS functional assay, U-2 OS cells. It is filed as biochemical. On the set-up: host or cells: U-2 OS cells. The settings on record: for Emax: U2-OS cells, relative to DAMGO. The procedure, abridged:
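U-2 OS membranes expressing recombinant human μ-receptor (0.026 mg/mL) were incubated with compound, […], saponin and [35S]GTPγS 0.20 nM in HEPES/NaCl/MgCl2 buffer pH 7.4 for 30 min at about 25° C. Filter-bound radioactivity gave sigmoidal fits for EC50; Emax is relative to DAMGO.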

`CCC(=O)N[C@H]1C[C@@]2(O)[C@H]3Cc4ccc(O)cc4[C@@]2(CCN3CC2CC2)C[C@@H]1O` [Compound 57, N-((4bR,6S,7S,8aS,9R)-11-(cyclopropylmethyl)-3,6,8a-trihydroxy-6,7,8,8a,9,10-hexahydro-5H-9,4b-(epiminoethano)phenanthren-7-yl)propionamide]: the EC50 (commonly the midpoint of the concentration-response curve) was 26.1 ± 6.87 nM at human κ opioid receptor [1], 33.1 ± 3.53 nM at human κ opioid receptor [2], over 20000 nM on μ-opioid receptor [4] and 77.7 ± 10.3 nM on μ-opioid receptor [6]. Also, the maximum response (Emax) (commonly the greatest response seen or fitted, relative to the assay's reference) at human κ opioid receptor [1] was 37.2 ± 3.07%; at human κ opioid receptor [2] it was 113 ± 5.86%; on μ-opioid receptor [4], 1.5%; on μ-opioid receptor [6], 9 ± 0.58%. The Ki (as a rule, the equilibrium dissociation constant of an inhibitor or competing ligand from its target) on μ-opioid receptor [3] is 44.9 ± 7.71 nM; on human κ opioid receptor [5], 16.7 ± 2.61 nM.
Take `CC(=O)N[C@H]1C[C@@]2(O)[C@H]3Cc4ccc(O)cc4[C@@]2(CCN3CC2CC2)C[C@H]1O` [Compound 55, N-((4bR,6R,7S,8aS,9R)-11-(cyclopropylmethyl)-3,6,8a-trihydroxy-6,7,8,8a,9,10-hexahydro-5H-9,4b-(epiminoethano)phenanthren-7-yl)acetamide]: the EC50 on human κ opioid receptor [1] is 203 ± 20.2 nM; on human κ opioid receptor [2], 194 ± 54.4 nM; at μ-opioid receptor [4], over 20000 nM; at μ-opioid receptor [6], over 20000 nM. For the same compound, the Emax on human κ opioid receptor [1] worked out at 13.3 ± 0.88%; on human κ opioid receptor [2] it was 77.7 ± 5.49%; at μ-opioid receptor [4], 1%; on μ-opioid receptor [6], 4%. Also, the figures for the Ki on μ-opioid receptor [3] and on human κ opioid receptor [5] were 201 ± 62.1 nM and 54.8 ± 8.83 nM, respectively.

The values above are taken from patent US20200148646A1, “6-S[…] 7-S[…] ANALOGS AND THE USE THEREOF” (Purdue Pharma, L.P., priority 2013, published 2020).
